According to ChEMBL document CHEMBL5537165, “Hepatitis C: The Story of a Long Journey through First, Second, and Third Generation NS3/4A Peptidomimetic Inhibitors. What Did We Learn?” (J Med Chem, 2024):
pEC50, pIC50, pKi: −log10 of the molar value. Where a SMILES comes first, the peptide text is derived from it. [ ]: non-standard residue; d: D form.

Columns and labels:
[1] = Inhibition of Hepatitis C virus NS3 protease; set-up: species or system Hepacivirus hominis
[2] = molecular target: T1, Non-structural protein 4b (Hepacivirus hominis, UniProt F5B4I0); test: Inhibition of Hepatitis C virus genotype 3a NS4B
T1 sequence (F5B4I0 whole entry): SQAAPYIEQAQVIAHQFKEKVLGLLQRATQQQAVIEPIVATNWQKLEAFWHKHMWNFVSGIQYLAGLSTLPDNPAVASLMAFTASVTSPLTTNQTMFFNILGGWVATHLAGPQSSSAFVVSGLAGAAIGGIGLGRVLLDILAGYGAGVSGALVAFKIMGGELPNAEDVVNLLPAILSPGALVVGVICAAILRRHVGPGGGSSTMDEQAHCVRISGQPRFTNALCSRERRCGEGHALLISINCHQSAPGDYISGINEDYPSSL

[3] = Half life in Sprague-Dawley rat at 5 mg/kg, po by LC-MS/MS analysis; type: ADME, organism-based; conditions: in vivo
[4] = Oral bioavailability in Beagle dog at 2 mg/kg; type: ADME, organism-based, Canis lupus familiaris; conditions: in vivo
[5] = Half life in Beagle dog at 5 mg/kg, po by LC-MS/MS analysis; type: ADME, organism-based, Canis lupus familiaris; conditions: in vivo
[6] = AUC in Sprague-Dawley rat at 2 mg/kg, po; type: ADME, organism-based; conditions: in vivo
[7] = molecular target: T1, Non-structural protein 4b; test: Binding affinity to full length Hepatitis C virus genotype 1b NS4B expressed in Escherichia coli assessed as inhibition constant
SARS-CoV-2 [8] = test: Antiviral activity against SARS-CoV-2 infected in human Huh-7 cells assessed as reduction in viral growth; type: functional, organism-based; conditions: Severe acute respiratory syndrome coronavirus 2, Huh-7
[9] = molecular target: Replicase polyprotein 1ab (Severe acute respiratory syndrome coronavirus 2, UniProt P0DTD1); test: Inhibition of SARS-CoV-2 3CL protease by FRET assay
SARS-CoV-2 [10] = test: Antiviral activity against SARS-CoV-2 infected in African green monkey Vero E6 cells assessed as reduction in viral replication measured after 48 hrs by Hoechst 33342 staining based analysis; type: functional, organism-based; conditions: Severe acute respiratory syndrome coronavirus 2, Vero C1008, 48 h
[11] = molecular target: T1, Non-structural protein 4b; test: Inhibition of Hepatitis C virus genotype 1b NS4B
[12] = molecular target: T1, Non-structural protein 4b; test: Binding affinity to Hepatitis C virus genotype 1a NS4B assessed as inhibition constant
[13] = molecular target: T1, Non-structural protein 4b; test: Binding affinity to Hepatitis C virus genotype 1b NS4B assessed as inhibition constant
[14] = molecular target: T1, Non-structural protein 4b; test: Inhibition of Hepatitis C virus genotype 1a NS4B
[15] = molecular target: T1, Non-structural protein 4b; test: Inhibition of full length Hepatitis C virus genotype 1b NS4B expressed in Escherichia coli
[16] = molecular target: T1, Non-structural protein 4b; test: Binding affinity to Hepatitis C virus genotype 3a NS4B assessed as inhibition constant
[17] = AUC (0 to infinity) in liver to plasma of Sprague-Dawley rat at 3 mg/kg,po; type: ADME, organism-based; conditions: in vivo
[18] = Cmax in Beagle dog at 3 mg/kg, po and measured upto 24 hrs by LC-MS/MS analysis; type: ADME, organism-based, Canis lupus familiaris; conditions: in vivo
[19] = Oral bioavailability in Sprague-Dawley rat; type: ADME, organism-based; conditions: in vivo
[20] = Volume of distribution at steady state in Sprague-Dawley rat at 1 mg/kg, iv; type: ADME, organism-based; conditions: in vivo, read-out: Vdss
[21] = Volume of distribution at steady state in Beagle dog at 0.5 mg/kg, iv and measured upto 24 hrs by LC-MS/MS analysis; type: ADME, organism-based, Canis lupus familiaris; conditions: in vivo, read-out: Vdss
[22] = Cmax in Sprague-Dawley rat at 3 mg/kg, po and measured upto 24 hrs by LC-MS/MS analysis; type: ADME, organism-based; conditions: in vivo
[23] = AUC in Sprague-Dawley rat plasma […] at 10 mg/kg, po administered via gavage by LC-MS/MS analysis; type: ADME, organism-based; conditions: in vivo
[24] = Clearance in Beagle dog plasma at 0.5 mg/kg, iv and measured upto 24 hrs by LC-MS/MS analysis; type: ADME, organism-based, Canis lupus familiaris
[25] = Clearance in Sprague-Dawley rat at 2 mg/kg, iv by LC-MS/MS analysis; type: ADME, organism-based; conditions: in vivo

CC[C@H](C)[C@H](NC(=O)[C@@H](CC(=O)O)NC(=O)[C@H](CC(=O)O)NC(C)=O)C(=O)N[C@H](C(=O)N1CCC[C@H]1C(=O)N[C@@H](CS)C(=O)O)C(C)C (Ac-D[dD]IVPC-OH)
pIC50 [1]: 5.40

COc1ccc2nc(C(F)(F)F)c3c(c2c1)CC[C@]1(C[C@H]2C(=O)N[C@]4(C(=O)NS(=O)(=O)C5(C)CC5)C[C@H]4/C=C/CCCCCC(NC(=O)OC(C)(C)C)C(=O)N2C1)O3 (stereo not given in full)
pIC50 [2]: 9.33

Cc1cnc(C(=O)N[C@H]2CCCCC/C=C\[C@@H]3C[C@@]3(C(=O)NS(=O)(=O)C3CC3)NC(=O)[C@@H]3C[C@@H](Oc4nc5ccccc5c5ccccc45)CN3C2=O)cn1
half-life [3]: 0.4 h | bioavailability [4]: 41% | half-life [5]: 1.2 h | AUC [6]: 19 µM·h

COc1ccc2c(O[C@@H]3C[C@H]4C(=O)N[C@]5(P(=O)(O)Cc6c(F)cccc6F)C[C@H]5CCCCCCC[C@H](NC(=O)OC5CCCC5)C(=O)N4C3)cc(-c3csc(NC(C)C)n3)nc2c1Cl [GS-9256]
pKi [7]: 10.05 | pEC50 (SARS-CoV-2 [8]): 7.70

C=C[C@@H]1C[C@]1(NC(=O)[C@@H]1C[C@@H](Oc2cc(-c3ccccc3)nc3cc(OC)ccc23)CN1C(=O)[C@H](CCCCC)NC(=O)OC(C)(C)C)C(=O)O
pIC50 [1]: 6.40

COc1ccc2c(O[C@@H]3C[C@H]4C(=O)N[C@]5(P(=O)(O)Cc6ccccc6)C[C@H]5CCCCCCC[C@H](NC(=O)OC5CCCC5)C(=O)N4C3)cc(-c3csc(NC(C)C)n3)nc2c1
pIC50 [9]: 8.22

C=C[C@@H]1C[C@]1(NC(=O)[C@@H]1C[C@@H](Oc2cc(-c3csc(NC(C)C)n3)nc3c(C(C)C)c(OC)ccc23)CN1C(=O)[C@@H](NC(=O)OC1CCCC1)C(C)(C)C)C(=O)O
pIC50 [9]: 7.85 | pEC50 (SARS-CoV-2 [10]): 7.35

C=C[C@@H]1C[C@]1(NC(=O)[C@@H]1C[C@@H](Oc2cc3ccccc3cn2)CN1C(=O)[C@@H](NC(=O)OCC(C)C)C(C)(C)C)C(=O)NS(=O)(=O)C1(C)CC1
pIC50 [2]: 6.37 | pIC50 [11]: 8.57

CC(C)(C)OC(=O)N[C@H]1CCCCC/C=C\[C@@H]2C[C@@]2(C(=O)NS(=O)(=O)C2CC2)NC(=O)[C@@H]2C[C@@H](OC(=O)N3Cc4cccc(F)c4C3)CN2C1=O [DANOPREVIR]
pKi [12]: 9.00

C=C[C@@H]1C[C@]1(NC(=O)[C@@H]1C[C@]23CCc4c(c(nc5ccc(OC)cc45)CCCCC[C@@H]4C[C@H]4OC(=O)N[C@@H](C4(C)CCCCC4)C(=O)N1C2)O3)C(=O)NS(=O)(=O)C1(C)CC1
pIC50 [2]: 8.35

CC[C@@H]1C[C@]1(NC(=O)[C@@H]1C[C@@H]2CN1C(=O)[C@H](C(C)(C)C)NC(=O)OCC(C)(C)CCCCc1cccc3c1CN(C3)C(=O)O2)C(=O)NS(=O)(=O)C1CC1
pIC50 [11]: 8.52 | pKi [13]: 10.30

C=C[C@@H]1C[C@]1(NC(=O)[C@@H]1C[C@@H](Oc2cc(-c3ccccc3)nc3cc(OC)ccc23)CN1C(=O)[C@@H](NC(=O)OC(C)(C)C)C(C)(C)C)C(=O)NS(=O)(=O)C1CC1
pEC50 (SARS-CoV-2 [8]): 8.40 | pIC50 [14]: 9.00

C=C[C@@H]1C[C@]1(NC(=O)[C@@H]1C[C@@H]2CN1C(=O)[C@H](C(C)(C)C)NC(=O)OCCC/C=C/c1ccc3ccnc(c3c1)O2)C(=O)NS(=O)(=O)C1CC1
pIC50 [15]: 6.68

C=C[C@@H]1C[C@]1(NC(=O)[C@@H]1C[C@@H]2CN1C(=O)[C@H](C(C)(C)C)NC(=O)O[C@@H]1C[C@H]1CCCCCc1nc3ccc(OC)cc3cc1O2)C(=O)NS(=O)(=O)C1CC1
pKi [7]: 10.70 | pIC50 [15]: 7.89 | pKi [16]: 9.51

COc1ccc2nc3c(nc2c1)O[C@@H]1CC2C(=O)N[C@]4(C(=O)NS(=O)(=O)C5(C)CC5)C[C@@H]4/C=C/CCCCC[C@H](NC(=O)O[C@@H]4CCC[C@H]4CCCCC3)C(=O)N2C1 (stereo not given in full)
half-life [3]: 3.8 h | pKi [12]: 11.30 | bioavailability [4]: 12% | AUC [17]: 2470 µM·h | Cmax [18]: 350 nM | half-life [5]: 2.3 h | bioavailability [19]: 8% | Vd [20]: 4 L/kg | Vd [21]: 0.5 L/kg | Cmax [22]: 70 nM | pKi [16]: 9.59 | AUC [23]: 20 µM·h | clearance [24]: 4.4 mL/min/kg | clearance [25]: 33 mL/min/kg

C=C[C@@H]1C[C@]1(NC(=O)[C@@H]1C[C@@H](Oc2nccc3ccccc23)CN1C(=O)[C@@H](NC(=O)OC(C)(C)C)C(C)(C)C)C(=O)NS(=O)(=O)C1CC1
pEC50 (SARS-CoV-2 [8]): 7.22 | pIC50 [14]: 8.15
